Assay results from article PMC11845477, “Exploring the principles behind antibiotics with limited resistance” (Nature Communications, 2025).
Values joined by “and” are separate entries in the source; they are usually repeats but may differ in a detail not shown here. Equal values may be shown once. Read-outs that look alike come from different tables or passages of the source. Where a SMILES comes first, the peptide text is derived from it. Bridges are numbered along the chain shown (N, C = ends). [ ]: non-standard residue; d: D form. The star is where a group is joined. X2 = CC[C@H](C)CCCCC(=O)*; Dab = NCC[C@H](N)C(=O)O

Columns and labels:
[1] = system: K. pneumoniae; format: cell-based, Klebsiella pneumoniae
Experimental: (§1) We employed image analysis to quantify bacterial survival under fixed antibiotic concentrations (10xMIC for 4 hours) on E. coli, A. baumannii, K. pneumoniae, and P. aeruginosa. […] Survival rate was quantified by calculating the ratio of the viable cells after antibiotic treatment and the total initial viable cell count.
(§2) Fig. 9 Killing kinetics of the studied antibiotics. a Bacterial survival rate in response to toxic antibiotic exposure. […] The bars indicate the survival rate (log10) compared to the untreated initial viable cell count (see “Methods”). Data are presented as mean values of 5 biological replicates ± SEM. The antibiotic group differentiation is denoted by color. […] Survival was estimated by measuring cell viability (colony-forming units/ml) of 2 biologically independent strains following a 4-hour exposure to different concentrations of 16 antibiotics on E. coli ATCC25922 (for further details, see “Methods”). The antibiotic concentration that kills 99.9% of the E. coli population is indicated as a vertical dotted line (see Supplementary Data 5). Error bars represent standard error calculated from the colony counts by Poisson’s model. A Hill function was fitted to the dose-response data from two biological replicates, producing sigmoidal curves (Supplementary Data 5). The Hill coefficient reflects how steeply the survival rate decreases in response to increasing antibiotic concentration ([…]). […] X-axis label colors indicate mode of action groups. For detailed information on antibiotic and bacterial species, see Supplementary Data 1. Source data are provided as a Source Data file.
(§3) In this current study, the killing kinetics of each antibiotic was measured according to a previously established experimental protocol[62] with minor modifications. During this assay, the bacterial cultures were exposed to antibiotics in 96-well assay plates and their viability after 4 hours of exposure was quantified by two methods: i) microplating and colony counting or ii) fluorescent staining of cells and counting of the fluorescent units.
(§4) Specifically, these experiments were performed in the following steps: (1) Preparation of bacterial stocks. Single colonies from each strain were isolated and grown overnight in MHB medium at 37 °C, 160 rpm. In case of the fluorescently tagged E. coli strains, the medium was supplemented with 10 μg/mL chloramphenicol, to maintain the pZS2R plasmid. Overnight cultures were diluted 1:5000 and grown to an optical density at 600 nm (OD600) of 0.25. These cultures were concentrated by centrifugation and small aliquots of 50 μL containing ~2.2 × 10^9 cells were frozen in glycerol (stored at −80 °C). (2) Preparing assay plates with antibiotics. 96-well plates were filled with 235 μL MHB and supplemented with antibiotics using an automated digital dispenser (D300e, Tecan). In the case of SCH79797, we used minimal media. […] For testing the clearance efficacy of each antibiotic at a single lethal dose, the 10x of the MIC for each antibiotic-strain pair were prepared in at least three replicates. (3) Antibiotic exposure. During the dose response assay, frozen cultures of the E. coli strains expressing YFP and mCherry were thawed and mixed at a 1:1 ratio, diluted 1:1000 in 30 mL MHB and incubated for 45 min at 37 °C and 160 rpm. During the single-dose assay, the frozen cultures of experimental strains (E. coli, K. pneumoniae, A. baumannii) were also thawed and diluted 1:1000 in 30 mL MHB and incubated at 37 °C to reach an OD of 0.25 and 160 rpm. Following this incubation phase, these bacterial cultures were then aliquoted into the 96-well deep-well antibiotic plates (15 μL culture; total volume of 250 μL) at an inoculum density of about 10^7 CFU.

[2] = system: P. aeruginosa ATCC BAA-3107 (SEN) and P. aeruginosa LESB58 (MDR); assay: Frequency-of-resistance (FoR) assay, relative MIC of mutants; format: cell-based, Pseudomonas aeruginosa
Experimental: The susceptibility of antibiotics to resistance development was evaluated in two strains of each bacterial species: a multidrug-resistant strain and an antibiotic-sensitive strain of Escherichia coli, Klebsiella pneumoniae, Acinetobacter baumannii, and Pseudomonas aeruginosa. To explore first-step resistance, we previously used a standard protocol for spontaneous frequency-of-resistance analysis (FoR assay) at multiple concentrations of each antibiotic[10],[28],[31]–[33]. […] For all other combinations, approximately 10^10 bacterial cells were exposed to one of each antibiotic on agar plates for two days at concentrations where the given strain is susceptible. We examined resistance levels by contrasting the minimum inhibitory concentration (MICs) of the mutated strains to the original wild-type bacterial strain (i.e., relative MIC).
To estimate the frequency of spontaneous mutations that confer resistance in a microbial population, we conducted a frequency of resistance (FoR) assay following established protocols[10],[31]–[33]. […] Prior to plating, bacteria were grown overnight in MHB medium at 37 °C and 250 RPM, then centrifuged and washed in MHB. All experiments were performed in triplicate, and plates were incubated at 37 °C for 48 hours. Total colony-forming units (CFUs) were determined by plating appropriate dilutions onto antibiotic-free MHB agar. Resistance frequencies were calculated by dividing the number of resistant colonies by the initial viable cell count. From the plates with the highest antibiotic concentration, ten colonies were selected for MIC determination and whole-genome sequencing.
A robotic liquid handling system was used to automatically prepare a 11 to 16-step serial dilution in 384-well microtiter plates (Greiner). A final concentration of 5 × 10^5 bacterial cells per mL were inoculated into each well containing 60 µL MHB medium. Bacterial cultures were incubated at 37 °C with continuous shaking (Infors shaker, 900 rpm with 3 mm throw) for 18 hours (2 replicates from each). Cell growth was monitored by measuring the optical density (OD600 values, using Biotek Synergy microplate reader). MIC was defined as the antibiotic concentration of complete growth inhibition (i.e., OD600 < 0.05). Relative MIC was calculated as follows:1 relativeMIC=MICevolved/MICancestor […]
Supplementary Figure 3. Resistance levels following the frequency of resistance assay across bacterial strains. The level of resistance was measured as the fold change in relative MIC between evolved and ancestral strains. Data are grouped by bacterial strain (A. baumannii (AB), E. coli (EC), K. pneumoniae (KP), and P. aeruginosa (PA)) and categorized as either multidrug-resistant (MDR) or sensitive (SEN). Each data point represents a laboratory evolved line, and boxplots show the median, first and third quartiles, with whiskers indicating the 5th and 95th percentiles. […]
analysis was performed using two-sided Dunn’s post-hoc test with Benjamini-Hochberg correction for multiple comparisons (**/ * indicates p < 0.01/ 0.05). For detailed information on antibiotic and bacterial species, see Supplementary Table 1. For mode of action groups, refer to Table 1. Source data are provided as a Source Data file.

[3] = system: E. coli; format: cell-based, Escherichia coli
Experimental: as §1, §2, §3, §4

[4] = P. aeruginosa ATCC BAA 3107 (PA-SEN), evolved line 1
[5] = P. aeruginosa ATCC BAA 3107 (PA-SEN), evolved line 2
[6] = P. aeruginosa ATCC BAA 3107 (PA-SEN), evolved line 3
[7] = P. aeruginosa LESB 58 (PA-MDR), evolved line 1
[8] = P. aeruginosa LESB 58 (PA-MDR), evolved line 1, evolved vs ancestor
[9] = P. aeruginosa LESB 58 (PA-MDR), evolved line 2
[10] = P. aeruginosa LESB 58 (PA-MDR), evolved line 2, evolved vs ancestor
[11] = P. aeruginosa LESB 58 (PA-MDR), evolved line 3
[12] = P. aeruginosa LESB 58 (PA-MDR), evolved line 3, evolved vs ancestor
[13] = P. aeruginosa ATCC BAA 3107 (PA-SEN), evolved line 1, evolved vs ancestor
[14] = P. aeruginosa ATCC BAA 3107 (PA-SEN), evolved line 2, evolved vs ancestor
[15] = P. aeruginosa ATCC BAA 3107 (PA-SEN), evolved line 3, evolved vs ancestor
[16] = Klebsiella pneumoniae, survival at 10xMIC for 4 hours, single replicates, (fig 9a source data)
[17] = Escherichia coli, survival at 10xMIC for 4 hours, single replicates, (fig 9a source data)

CN[C@@H]1[C@@H](O[C@H]2O[C@H](CO)[C@@H](N)[C@H](O)[C@H]2O)OC2C[C@@H](N)[C@@H](O[C@H]3[C@H](O)[C@@H](O)[C@H](N)C[C@@H]3N)OC2[C@@H]1O (some centres unmarked) [Apramycin]
Survival rate (log10) ([1]; Klebsiella pneumoniae, survival at 10xMIC for 4 hours, single replicates, (fig 9a source data), listed as APR): -1.19 log10 and -1.1 log10 and -1.062 log10 and -0.9595 log10 and -0.945 log10

Nc1nc(-n2cc(C(=O)O)c(=O)c3cc(F)c(N4CC(O)C4)c(Cl)c32)c(F)cc1F [Delafloxacin]
Survival rate (log10) ([1]; Klebsiella pneumoniae, survival at 10xMIC for 4 hours, single replicates, (fig 9a source data), listed as DEL): -0.7389 log10 and -0.7966 log10 and -0.7399 log10 and -1.048 log10 and -0.8397 log10
MIC of evolved line [2, 4]: 2 µg/mL
MIC of evolved line [2, 5]: 2 µg/mL
MIC of evolved line [2, 6]: 2 µg/mL
MIC of evolved line [2, 7]: 8 µg/mL
Relative MIC [2, 8]: 4
MIC of evolved line [2, 9]: 8 µg/mL
Relative MIC [2, 10]: 4
MIC of evolved line [2, 11]: 4 µg/mL
Relative MIC [2, 12]: 2
Survival rate (log10) ([3]; Escherichia coli, survival at 10xMIC for 4 hours, single replicates, (fig 9a source data), listed as DEL): -1.163 log10 and -1.03 log10 and -1.096 log10 and -1.128 log10 and -1.122 log10

C[C@H]1c2cccc(O)c2C(=O)C2=C(O)[C@]3(O)C(=O)C(C(N)=O)=C(O)[C@@H](N(C)C)[C@@H]3[C@@H](O)[C@@H]21 [Doxycycline]
Relative MIC [2, 13]: 32
Relative MIC [2, 14]: 32
Relative MIC [2, 15]: 32

O=c1ccc2ncc(=O)n3c2n1C[C@H]3CN1CCC(NCc2cc3c(cn2)OCCC3)CC1 [Gepotidacin]
MIC of evolved line [2, 4]: 64 µg/mL
Relative MIC [2, 13]: 16
MIC of evolved line [2, 5]: 64 µg/mL
Relative MIC [2, 14]: 16
MIC of evolved line [2, 6]: 64 µg/mL
Relative MIC [2, 15]: 16
MIC of evolved line [2, 7]: 32 µg/mL
Relative MIC [2, 8]: 8
MIC of evolved line [2, 9]: 32 µg/mL
Relative MIC [2, 10]: 8
MIC of evolved line [2, 11]: 16 µg/mL
Relative MIC [2, 12]: 4

C[C@@H](O)[C@H]1C(=O)N2C(C(=O)O)=C(S[C@@H]3CN[C@H](C(=O)N(C)C)C3)[C@H](C)[C@H]12 [Meropenem]
MIC of evolved line [2, 4]: 2 µg/mL
MIC of evolved line [2, 5]: 2 µg/mL
MIC of evolved line [2, 6]: 2 µg/mL
MIC of evolved line [2, 7]: 32 µg/mL
MIC of evolved line [2, 9]: 32 µg/mL
MIC of evolved line [2, 11]: 32 µg/mL

COc1c(N2C[C@@H]3CCCN[C@@H]3C2)c(F)cc2c(=O)c(C(=O)O)cn(C3CC3)c12 [Moxifloxacin]
MIC of evolved line [2, 4]: 16 µg/mL
MIC of evolved line [2, 5]: 32 µg/mL
MIC of evolved line [2, 6]: 32 µg/mL

CC[C@H](C)CCCCC(=O)N[C@@H](CCN)C(=O)N[C@H](C(=O)N[C@@H](CCN)C(=O)N[C@H]1CCNC(=O)[C@H]([C@@H](C)O)NC(=O)[C@H](CCN)NC(=O)[C@H](CCN)NC(=O)[C@H](CC(C)C)NC(=O)[C@@H](Cc2ccccc2)NC(=O)[C@H](CCN)NC1=O)[C@@H](C)O [Polymyxin B] (X2-[Dab]T[Dab][Dab][Dab][dF]L[Dab][Dab]T; lactam 4-C (inferred); N-terminus assumed)
Survival rate (log10) ([1]; Klebsiella pneumoniae, survival at 10xMIC for 4 hours, single replicates, (fig 9a source data), listed as PMB): -3.309 log10 and -3.392 log10 and -3.139 log10 and -2.914 log10 and -3.825 log10
Survival rate (log10) ([3]; Escherichia coli, survival at 10xMIC for 4 hours, single replicates, (fig 9a source data), listed as PMB): -4.007 log10 and -4.747 log10 and -3.481 log10

CC(C)c1ccc(Cn2ccc3c4c(N)nc(NC5CC5)nc4ccc32)cc1 [SCH79797]
bacterial survival after toxic antibiotic exposure ([1]; 10xMIC for 4 hours): eliminated the entire bacterial population
Survival rate (log10) [1, 16]: -6 log10
bacterial survival after toxic antibiotic exposure ([3]; 10xMIC for 4 hours): eliminated the entire bacterial population
Survival rate (log10) [3, 17]: -6 log10

C[C@@H](O)[C@H]1C(=O)N2C(C(=O)O)=C(S[C@H]3CC[S@@+]([O-])C3)S[C@H]12 [Sulopenem]
Survival rate (log10) ([1]; Klebsiella pneumoniae, survival at 10xMIC for 4 hours, single replicates, (fig 9a source data), listed as SUO): -0.7658 log10 and -1.06 log10 and -0.9043 log10 and -0.6919 log10 and -1.504 log10
Survival rate (log10) ([3]; Escherichia coli, survival at 10xMIC for 4 hours, single replicates, (fig 9a source data), listed as SUO): -1.918 log10 and -1.5648 log10 and -1.786 log10 and -1.733 log10 and -1.844 log10

POL7306
Survival rate (log10) [1]: -3.973 log10 and -4.193 log10
Survival rate (log10) [1, 16]: -4.671 log10
Survival rate (log10) [3]: -4.747 log10
Survival rate (log10) ([3]; Escherichia coli, survival at 10xMIC for 4 hours, single replicates, (fig 9a source data), listed as POL): -4.446 log10 and -4.3509 log10

Tridecaptin M152-P3
Survival rate (log10) ([1]; Klebsiella pneumoniae, survival at 10xMIC for 4 hours, single replicates, (fig 9a source data), listed as TRD): -2.838 log10 and -3.629 log10 and -3.392 log10 and -4.671 log10
Survival rate (log10) [3]: -4.747 log10
Survival rate (log10) [3, 17]: -3.386 log10

colistin
Survival rate (log10) ([1]; Klebsiella pneumoniae, survival at 10xMIC for 4 hours, single replicates, (fig 9a source data), listed as COL): -3.893 log10 and -3.973 log10 and -4.193 log10 and -4.37 log10
Survival rate (log10) ([3]; Escherichia coli, survival at 10xMIC for 4 hours, single replicates, (fig 9a source data), listed as COL): -4.747 log10 and -3.794 log10

polymyxin-B
MIC of evolved line [2, 4]: 1 µg/mL
MIC of evolved line [2, 5]: 1 µg/mL
MIC of evolved line [2, 6]: 1 µg/mL
MIC of evolved line [2, 7]: 4 µg/mL
MIC of evolved line [2, 9]: 4 µg/mL
MIC of evolved line [2, 11]: 4 µg/mL
